Data published in patent publication EP3521435A1, “A HIGH STRINGENCY SELECTION SYSTEM FOR PROTEIN EXPRESSION IN PROLINE-AUXOTROPHIC CELLS” (Bayer AG, priority 2018, dated 2019).

Columns and labels:
[1] = test system: CHO-K1 cells; test: Fed-batch fermentation in shake flasks of human IgG1 expressing stable cell populations; assay type: cell-based, Chinese hamster; settings: non-selecting conditions; for Productivity profile: human IgG1
[2] = test system: CHO-K1 cells; test: as above; assay type: cell-based, Chinese hamster; settings: selected in CD-Fusion + 10 µg/ml Puromycin (pJF1576), non-selecting conditions; for Productivity profile: human IgG1
Description: To test the performance of P5CS selection in combination with DHP in a production cell line development setting (i.e. only a single selection marker in expression vector), vectors with P5CS selection marker in place of Puromycin selection marker containing human IgG1 expression cassettes were generated and tested. For this experiment, the vector pJF1979 was taken as a reference, with Puromycin selection marker placed downstream of the human IgG1 expression cassette. For comparison, the vectors pJF1969 and pJF1970 were used, which contained short and long isoform of P5CS in place of Puromycin selection marker downstream of human IgG1 expression cassette. As control, vector pJF1576 from Example 8 was used, which contained both P5CS (upstream of human IgG1 expression cassette) and Puromycin (downstream of human IgG1 expression cassette) selection markers. […] The fed-batch was without pH control during cultivation and no additional glucose was fed apart from that present in feeding solutions. Table 22, Table 23 and Table 24 show viable cell density, viability and productivity profiles of cell populations cultured in fed-batch fermentation in shake flasks under non-selecting conditions (i.e. production medium containing proline and no additional selective agents like Puromycin or DHP) after inoculation at 3e5 viable cells/ml. […] Table 21: Cell viabilities determined post-transfection on day 21.

[3] = target: T1, murine P5CS long isoform (Mus musculus, UniProt Q9Z110); settings: Hu et al.; cited from earlier work
T1 sequence (Q9Z110 1-795): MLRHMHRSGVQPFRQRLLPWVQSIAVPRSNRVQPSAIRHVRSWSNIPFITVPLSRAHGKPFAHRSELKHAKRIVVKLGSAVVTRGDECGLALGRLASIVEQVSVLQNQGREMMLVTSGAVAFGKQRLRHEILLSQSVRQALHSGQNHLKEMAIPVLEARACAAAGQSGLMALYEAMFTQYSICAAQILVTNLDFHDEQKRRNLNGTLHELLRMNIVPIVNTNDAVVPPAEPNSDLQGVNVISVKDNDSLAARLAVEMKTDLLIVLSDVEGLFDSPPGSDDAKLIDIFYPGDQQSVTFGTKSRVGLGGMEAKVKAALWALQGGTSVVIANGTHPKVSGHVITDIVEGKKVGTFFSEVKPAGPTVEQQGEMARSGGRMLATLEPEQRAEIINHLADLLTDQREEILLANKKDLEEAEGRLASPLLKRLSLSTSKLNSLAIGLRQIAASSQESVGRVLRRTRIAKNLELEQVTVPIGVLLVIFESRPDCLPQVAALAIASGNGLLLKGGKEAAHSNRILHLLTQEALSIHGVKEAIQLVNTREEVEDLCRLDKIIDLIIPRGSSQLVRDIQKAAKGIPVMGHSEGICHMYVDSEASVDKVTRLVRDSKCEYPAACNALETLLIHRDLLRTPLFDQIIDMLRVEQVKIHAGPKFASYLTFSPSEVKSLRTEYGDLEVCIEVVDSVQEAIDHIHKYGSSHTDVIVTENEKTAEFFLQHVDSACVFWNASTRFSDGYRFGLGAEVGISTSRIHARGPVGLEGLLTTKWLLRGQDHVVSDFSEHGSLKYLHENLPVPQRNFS

[4] = Day 3 after inoculation, selected in CD-Fusion + 10 µg/ml Puromycin (pJF1576)
[5] = Day 3 after inoculation, selected in CD-Fusion + 10 µg/ml Puromycin (pJF1579)
[6] = Day 5 after inoculation, selected in CD-Fusion + 10 µg/ml Puromycin (pJF1579)
[7] = Day 5 after inoculation, selected in CD-Fusion + 10 µg/ml Puromycin (pJF1576)
[8] = Day 7 after inoculation, selected in CD-Fusion + 10 µg/ml Puromycin (pJF1579)
[9] = Day 10 after inoculation, selected in CD-Fusion + 10 µg/ml Puromycin (pJF1576)
[10] = Day 10 after inoculation, selected in CD-Fusion + 10 µg/ml Puromycin (pJF1579)
[11] = Day 12 after inoculation, selected in CD-Fusion + 10 µg/ml Puromycin (pJF1579)
[12] = Day 14 after inoculation, selected in CD-Fusion + 10 µg/ml Puromycin (pJF1576)
[13] = Day 14 after inoculation, selected in CD-Fusion + 10 µg/ml Puromycin (pJF1579)

SMILES: COc1ccc(C[C@H](N)C(=O)N[C@H]2[C@@H](O)[C@H](n3cnc4c(N(C)C)ncnc43)O[C@@H]2CO)cc1 [Puromycin]
- Viability profile ([1]; Day 0 after inoculation, selected in CD-Fusion + 10 µg/ml Puromycin (pJF1576)): 99.8%
- Viability profile ([1]; Day 0 after inoculation, selected in CD-Fusion + 10 µg/ml Puromycin (pJF1579)): 99.8%
- Productivity profile [1, 4]: 13.6 mg/L
- Productivity profile [1, 5]: 12.4 mg/L
- Viability profile [1, 4]: 99.9%
- Viable cell density profile [1, 4]: 1,4E +06 VCD/ml
- Viability profile [1, 5]: 99.8%
- Viable cell density profile [1, 5]: 1,8E +06 VCD/ml
- Productivity profile [1, 6]: 24.4 mg/L
- Viability profile [1, 7]: 99.8%
- Viable cell density profile [1, 7]: 4,8E +06 VCD/ml
- Viability profile [1, 6]: 99.9%
- Viable cell density profile [1, 6]: 5,6E +06 VCD/ml
- Productivity profile [1, 8]: 60.0 mg/L
- Viable cell density profile ([1]; Day 7 after inoculation, selected in CD-Fusion + 10 µg/ml Puromycin (pJF1576)): 9,5E +06 VCD/ml
- Viability profile [1, 8]: 99.2%
- Viable cell density profile [1, 8]: 1,2E +07 VCD/ml
- Productivity profile [1, 9]: 182.0 mg/L
- Productivity profile [1, 10]: 155.1 mg/L
- Viable cell density profile [1, 9]: 1,2E +07 VCD/ml
- Viability profile [1, 10]: 97.9%
- Viable cell density profile [1, 10]: 1,5E +07 VCD/ml
- Productivity profile [1, 11]: 265.9 mg/L
- Viability profile ([1]; Day 12 after inoculation, selected in CD-Fusion + 10 µg/ml Puromycin (pJF1576)): 96.2%
- Viability profile [1, 11]: 97.5%
- Viable cell density profile [1, 11]: 1,0E +07 VCD/ml
- Productivity profile [1, 12]: 442.2 mg/L
- Productivity profile [1, 13]: 372.0 mg/L
- Viability profile [1, 12]: 86.2%
- Viable cell density profile [1, 12]: 7,4E +06 VCD/ml
- Viability profile [1, 13]: 92.7%
- Viable cell density profile [1, 13]: 9,7E +06 VCD/ml
- Productivity profile ([2]; Day 5 after inoculation): 26.6 mg/L
- Productivity profile ([2]; Day 7 after inoculation): 68.9 mg/L
- Viability profile ([2]; Day 7 after inoculation): 99.3%
- Viability profile ([2]; Day 10 after inoculation): 97.0%
- Productivity profile ([2]; Day 12 after inoculation): 304.9 mg/L
- Viable cell density profile ([2]; Day 12 after inoculation): 9,1E +06 VCD/ml

SMILES: NCCC[C@H](N)C(=O)O [Orn, L-Ornithine]
- Ornithine inhibition [3]: insensitive
